According to the supplement of paper PMC10307832:

Tests used:
Test in all cases: relative viability (nuclei count vs DMSO), 5 days (fraction); higher = more cells survive
NCI-H1793 = test system: NCI-H1793
Procedure, shortened: (§1)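 Relative viability divides the nuclei count in treated wells by that in vehicle wells. Lung cancer cell lines were seeded in 1536-well plates, dosed by pin tool the next day, and fixed and stained after 5 days in one step with final 0.05% Triton X-100, 1% formaldehyde and 1 ug/ml Hoechst. Dosing was a single drug or a fixed anchor-drug dose plus five library-drug doses (not always all listed) in √10 steps, and values are medians of duplicate plates imaged at 4×.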

NCI-H838 = test system: NCI-H838
Procedure, shortened: as §1

NCI-H520 = test system: NCI-H520
Procedure, shortened: as §1

NCI-H23 = test system: NCI-H23
Procedure, shortened: as §1

LU99A = test system: LU99A
Procedure, shortened: as §1

NCI-H2228 = test system: NCI-H2228
Procedure, shortened: as §1

PC-3 [JPC-3] = test system: PC-3 [JPC-3]
Procedure, shortened: as §1

BEN = test system: BEN
Procedure, shortened: as §1

NCI-H2347 = test system: NCI-H2347
Procedure, shortened: as §1

NCI-H460 = test system: NCI-H460
Procedure, shortened: as §1

RERF-LC-KJ = test system: RERF-LC-KJ
Procedure, shortened: as §1

LOU-NH91 = test system: LOU-NH91
Procedure, shortened: as §1

EKVX = test system: EKVX
Procedure, shortened: as §1

NCI-H1355 = test system: NCI-H1355
Procedure, shortened: as §1

LC-2-ad = test system: LC-2-ad
Procedure, shortened: as §1

A-427 = test system: A-427
Procedure, shortened: as §1

LCLC-97TM1 = test system: LCLC-97TM1
Procedure, shortened: as §1

NCI-H650 = test system: NCI-H650
Procedure, shortened: as §1

NCI-H1666 = test system: NCI-H1666
Procedure, shortened: as §1

NCI-H1993 = test system: NCI-H1993
Procedure, shortened: as §1

SW 1573 = test system: SW 1573
Procedure, shortened: as §1

NCI-H1915 = test system: NCI-H1915
Procedure, shortened: as §1

O=c1[nH]c2ccccc2n1C1CCN(CCCC(c2ccc(F)cc2)c2ccc(F)cc2)CC1 [Pimozide] + Cc1nc(NC(=O)N2CCC[C@H]2C(N)=O)sc1-c1ccnc(C(C)(C)C(F)(F)F)c1 [Alpelisib] (partner 2 µM)
relative viability (NCI-H1793; first compound 0.08 µM): 0.491
relative viability (NCI-H1793; first compound 0.253 µM): 0.567
relative viability (NCI-H1793; first compound 0.8 µM): 0.988
relative viability (NCI-H1793; first compound 2.53 µM): 0.665
relative viability (NCI-H1793; first compound 8 µM): 0.87
relative viability (NCI-H838; first compound 0.08 µM): 0.95
relative viability (NCI-H838; first compound 0.253 µM): 0.98
relative viability (NCI-H838; first compound 0.8 µM): 0.967
relative viability (NCI-H838; first compound 2.53 µM): 1.03
relative viability (NCI-H838; first compound 8 µM): 1.04
relative viability (NCI-H520; first compound 0.08 µM): 1.03
relative viability (NCI-H520; first compound 0.253 µM): 0.88
relative viability (NCI-H520; first compound 0.8 µM): 0.992
relative viability (NCI-H520; first compound 2.53 µM): 0.947
relative viability (NCI-H520; first compound 8 µM): 0.832
relative viability (NCI-H23; first compound 0.08 µM): 0.577
relative viability (NCI-H23; first compound 0.253 µM): 0.575
relative viability (NCI-H23; first compound 0.8 µM): 0.718
relative viability (NCI-H23; first compound 2.53 µM): 0.68
relative viability (NCI-H23; first compound 8 µM): 0.745
relative viability (LU99A; first compound 0.08 µM): 0.397
relative viability (LU99A; first compound 0.253 µM): 0.424
relative viability (LU99A; first compound 0.8 µM): 0.42
relative viability (LU99A; first compound 2.53 µM): 0.484
relative viability (LU99A; first compound 8 µM): 0.477
relative viability (NCI-H2228; first compound 0.08 µM): 0.623
relative viability (NCI-H2228; first compound 0.253 µM): 0.755
relative viability (NCI-H2228; first compound 0.8 µM): 0.735
relative viability (NCI-H2228; first compound 2.53 µM): 0.737
relative viability (NCI-H2228; first compound 8 µM): 0.482
relative viability (PC-3 [JPC-3]; first compound 0.253 µM): 0.964
relative viability (PC-3 [JPC-3]; first compound 0.8 µM): 0.978
relative viability (PC-3 [JPC-3]; first compound 2.53 µM): 0.961
relative viability (PC-3 [JPC-3]; first compound 8 µM): 0.96
relative viability (BEN; first compound 0.08 µM): 1.08
relative viability (BEN; first compound 0.253 µM): 1.09
relative viability (BEN; first compound 0.8 µM): 0.961
relative viability (BEN; first compound 2.53 µM): 0.937
relative viability (BEN; first compound 8 µM): 1.06
relative viability (NCI-H2347; first compound 0.08 µM): 1.11
relative viability (NCI-H2347; first compound 0.253 µM): 0.966
relative viability (NCI-H2347; first compound 0.8 µM): 0.914
relative viability (NCI-H2347; first compound 2.53 µM): 1.01
relative viability (NCI-H2347; first compound 8 µM): 0.966
relative viability (NCI-H460; first compound 0.08 µM): 0.476
relative viability (NCI-H460; first compound 0.253 µM): 0.428
relative viability (NCI-H460; first compound 0.8 µM): 0.472
relative viability (NCI-H460; first compound 2.53 µM): 0.487
relative viability (NCI-H460; first compound 8 µM): 0.493
relative viability (RERF-LC-KJ; first compound 0.08 µM): 0.693
relative viability (RERF-LC-KJ; first compound 0.253 µM): 0.724
relative viability (RERF-LC-KJ; first compound 0.8 µM): 0.807
relative viability (RERF-LC-KJ; first compound 2.53 µM): 0.841
relative viability (RERF-LC-KJ; first compound 8 µM): 0.711
relative viability (LOU-NH91; first compound 0.08 µM): 0.459
relative viability (LOU-NH91; first compound 0.253 µM): 0.731
relative viability (LOU-NH91; first compound 0.8 µM): 0.723
relative viability (LOU-NH91; first compound 2.53 µM): 0.733
relative viability (LOU-NH91; first compound 8 µM): 0.7
relative viability (EKVX; first compound 0.253 µM): 0.806
relative viability (EKVX; first compound 0.8 µM): 0.934
relative viability (EKVX; first compound 2.53 µM): 0.853
relative viability (EKVX; first compound 8 µM): 0.856
relative viability (NCI-H1355; first compound 0.08 µM): 0.81
relative viability (NCI-H1355; first compound 0.253 µM): 0.873
relative viability (NCI-H1355; first compound 0.8 µM): 0.811
relative viability (NCI-H1355; first compound 2.53 µM): 0.662
relative viability (NCI-H1355; first compound 8 µM): 0.817
relative viability (LC-2-ad; first compound 0.08 µM): 0.762
relative viability (LC-2-ad; first compound 0.253 µM): 0.847
relative viability (LC-2-ad; first compound 0.8 µM): 0.934
relative viability (LC-2-ad; first compound 2.53 µM): 0.879
relative viability (LC-2-ad; first compound 8 µM): 0.776
relative viability (A-427; first compound 0.08 µM): 1.08
relative viability (A-427; first compound 0.253 µM): 1.05
relative viability (A-427; first compound 0.8 µM): 1.14
relative viability (A-427; first compound 2.53 µM): 0.987
relative viability (A-427; first compound 8 µM): 1.01
relative viability (LCLC-97TM1; first compound 0.08 µM): 0.28
relative viability (LCLC-97TM1; first compound 0.253 µM): 0.239
relative viability (LCLC-97TM1; first compound 0.8 µM): 0.207
relative viability (LCLC-97TM1; first compound 2.53 µM): 0.224
relative viability (LCLC-97TM1; first compound 8 µM): 0.271
relative viability (NCI-H650; first compound 0.08 µM): 1.04
relative viability (NCI-H650; first compound 0.253 µM): 1.05
relative viability (NCI-H650; first compound 0.8 µM): 1.09
relative viability (NCI-H650; first compound 2.53 µM): 1.07
relative viability (NCI-H650; first compound 8 µM): 1.02
relative viability (NCI-H1666; first compound 0.08 µM): 0.948
relative viability (NCI-H1666; first compound 0.253 µM): 1.01
relative viability (NCI-H1666; first compound 0.8 µM): 0.886
relative viability (NCI-H1666; first compound 2.53 µM): 0.874
relative viability (NCI-H1666; first compound 8 µM): 0.728
relative viability (NCI-H1993; first compound 0.08 µM): 0.707
relative viability (NCI-H1993; first compound 0.253 µM): 0.648
relative viability (NCI-H1993; first compound 0.8 µM): 0.716
relative viability (NCI-H1993; first compound 2.53 µM): 0.734
relative viability (NCI-H1993; first compound 8 µM): 0.669
relative viability (SW 1573; first compound 0.08 µM): 0.795
relative viability (SW 1573; first compound 0.253 µM): 0.788
relative viability (SW 1573; first compound 0.8 µM): 0.764
relative viability (SW 1573; first compound 2.53 µM): 0.91
relative viability (SW 1573; first compound 8 µM): 0.743
relative viability (NCI-H1915; first compound 0.08 µM): 1.1
relative viability (NCI-H1915; first compound 0.253 µM): 1.06
relative viability (NCI-H1915; first compound 0.8 µM): 0.837
relative viability (NCI-H1915; first compound 2.53 µM): 1.08
relative viability (NCI-H1915; first compound 8 µM): 0.997
